Experimental data: US11708562B2, “Differentiation of human embryonic stem cells” (Janssen Biotech, Inc., priority 2006, dated 2023)

How the values were obtained:
[1] = tested on: H9P53 embryonic stem cells; assay: Definitive endoderm on […]: combination of Wnt-3a, GSK-3B inhibitor, BMP-4; assay type: cell-based, human
Source text: Results are expressed as fold increase over untreated cells. […] Results are expressed as fold increase over untreated cells.

[2] = tested on: human embryonic stem cell line H1 at passage 55; assay: Definitive endoderm on human serum coated plates (real-time PCR); assay type: cell-based
Method: Cultures of the human embryonic stem cell line H1 at passage 55 were grown and differentiated on human serum (Sigma, # H1388, MO) coated plates. 0.5 ml of human serum was added to each well of 6 well tissue culture treated dish, incubated for 1 hr at room temperature, and aspirated before adding human embryonic stem cells. […] These findings parallel our findings for human embryonic stem cells cultured on […]™ or human fibronectin coated plates.

[3] = tested on: H9P46-P48 embryonic stem cells; assay: Definitive endoderm on […]: effect of GSK-3B inhibitor (FACS CXCR4, PCR); assay type: cell-based, human; conditions: 20 ng/ml of Wnt-3a or 100-1000 nM GSK-3B inhibitor
Method: In order to confirm that the effect of Wnt-3a was through the Wnt pathway, a GSK-3 inhibitor was used to activate the downstream targets of Wnt, such as beta catenin. […] FIG. 29A depicts the expression of CXCR4 by FACS at day 5 in the absence of Wnt-3a or GSK-3B inhibitor, b)+20 ng/ml Wnt-3a, c)+1000 nM GSK-3B inhibitor IX, d)+500 nM GSK-3B inhibitor IX, e)+100 nM GSK-3B inhibitor IX, f)+10 nM GSK-3B inhibitor IX, g)+100 nM GSK-3B inhibitor IX for days 1-2, and h)+10 nM GSK-3B inhibitor IX for days 1-2.

[4] = tested on: human embryonic stem cell line H9; assay: Formation of pancreatic endocrine cells: γ-secretase inhibitor L-685,458 (PCR); assay type: cell-based; conditions: L-685,458 at 10 μM for three days
Method: After this time interval, the cells were then treated for six days with combinations of retinoic acid and FGF as outlined in Example 2, then the culture medium was removed and replaced with medium comprising DMEM/F12 with 2% FBS, containing the γ-secretase inhibitors L-685,458 at 10 μM for three days.

[5] = tested on: human embryonic stem cell line H9; assay: Formation of pancreatic endoderm: retinoic acid and bFGF after activin A (PCR, immunocytochemistry); assay type: cell-based
Source text: Final data were expressed relative to a calibrator sample.

[6] = tested on: H7P44 and H9P46 embryonic stem cells; assay: Definitive endoderm on […]: role of Wnt ligands (FACS CXCR4, real-time PCR); assay type: cell-based, human; conditions: H7 and H9; low serum+AA+/-Wnt ligands
Method: In some of the cultures 20 ng/ml Wnt-3a (Catalog #1324-WN-002, R&D Systems, MN), 20 ng/ml Wnt-5a (Catalog #654-WN-010, R&D Systems, MN), 25 ng/ml Wnt-7a (Catalog #3008-WN-025, R&D Systems, MN), or 25 ng/ml Wnt-5b (Catalog #3006-WN-025, R&D Systems, MN) was added throughout the five day treatment. FIGS. 24A and 24B depicts phase contrast images of H9P46 definitive endoderm culture in the presence of high concentration of (a) AA or (b) AA+20 ng/ml Wnt-3a. FIGS. 25A, 25B, 25C and 25D depicts the expression of CXCR4 by FACS at day 5 for H7P44, and H9P46 lines cultured on […]™ (1:30 dilution) and exposed to the DE protocol+Wnt-3a (FIGS. 25B and 25D) and -Wnt-3a (FIGS. 25A and C).

[7] = tested on: human embryonic stem cell line H9; assay: Derivation of hepatocytes from human embryonic stem cells (PCR of AFP, albumin); assay type: cell-based; conditions: five days after 7 days activin A
Source text: After this time, the cells were harvested, and samples of mRNA were collected for analysis.

Molecule: O=C1Nc2cc(Br)ccc2/C1=C1/Nc2ccccc2/C1=N\O [GSK-3B inhibitor IX, reference compound]
- definitive endoderm markers, combination versus each agent by itself ([1]; Wnt-3A plus GSK inhibitor in the presence of activin A): do not lead to significant upregulation
- expression of definitive endoderm markers compared to activin A only [2]: Robust expression
- number of CXCR4 positive cells (FACS) [3]: significantly increased

Molecule: CC(C)C[C@H](NC(=O)[C@H](Cc1ccccc1)C[C@@H](O)[C@H](Cc1ccccc1)NC(=O)OC(C)(C)C)C(=O)N[C@@H](Cc1ccccc1)C(N)=O [L-685,458]
- expression of Ngn3 relative to activin A alone or retinoic acid with FGFs [4]: approximately 50 fold

Molecule: CC1=C(/C=C/C(C)=C/C=C/C(C)=C/C(=O)O)C(C)(C)CCC1 [retinoic acid, all-trans retinoic acid]
- expression of GLUT-2 and PTF1a ([5]; 1 μM retinoic acid and 50 ng/ml bFGF, absence of activin A): largest increase
- Pdx1 expression relative to activin A treatment alone for 5 days ([5]; three days activin A, then 5 days retinoic acid and 50 ng/ml bFGF in the absence of activin A): approximately 3500 fold

B1: Wnt-5b: Wnt ligand, Catalog #3006-WN-025, R&D Systems (protein, UniProt P22726 18-359, looked up)
Protein Wnt-5b: QLLTDANSWWSLALNPVQRPEMFIIGAQPVCSQLPGLSPGQRKLCQLYQEHMSYIGEGAKTGIRECQHQFRQRRWNCSTVDNTSVFGRVMQIGSRETAFTYAVSAAGVVNAISRACREGELSTCGCSRAARPKDLPRDWLWGGCGDNVEYGYRFAKEFVDAREREKNFAKGSEEQGRALMNLQNNEAGRRAVYKMADVACKCHGVSGSCSLKTCWLQLAEFRKVGDRLKEKYDSAAAMRITRQGKLELANSRFNQPTPEDLVYVDPSPDYCLRNETTGSLGTQGRLCNKTSEGMDGCELMCCGRGYDRFKSVQVERCHCRFHWCCFVRCKKCTEVVDQYVCK
- expression of definitive endoderm markers (real-time PCR) [6]: minimal impact

B2: Wnt-5a: Wnt ligand, Catalog #654-WN-010, R&D Systems (protein, UniProt P22725 62-380, looked up)
Protein Wnt-5a: IIGAQPLCSQLAGLSQGQKKLCHLYQDHMQYIGEGAKTGIKECQYQFRHRRWNCSTVDNTSVFGRVMQIGSRETAFTYAVSAAGVVNAMSRACREGELSTCGCSRAARPKDLPRDWLWGGCGDNIDYGYRFAKEFVDARERERIHAKGSYESARILMNLHNNEAGRRTVYNLADVACKCHGVSGSCSLKTCWLQLADFRKVGDALKEKYDSAAAMRLNSRGKLVQVNSRFNSPTTQDLVYIDPSPDYCVRNESTGSLGTQGRLCNKTSEGMDGCELMCCGRGYDQFKTVQTERCHCKFHWCCYVKCKKCTEIVDQFVCK
- expression of definitive endoderm markers (real-time PCR) [6]: minimal impact

B3: Wnt-7a: Wnt ligand, Catalog #3008-WN-025, R&D Systems (protein, UniProt O00755 32-349, looked up)
Protein Wnt-7a: LGASIICNKIPGLAPRQRAICQSRPDAIIVIGEGSQMGLDECQFQFRNGRWNCSALGERTVFGKELKVGSREAAFTYAIIAAGVAHAITAACTQGNLSDCGCDKEKQGQYHRDEGWKWGGCSADIRYGIGFAKVFVDAREIKQNARTLMNLHNNEAGRKILEENMKLECKCHGVSGSCTTKTCWTTLPQFRELGYVLKDKYNEAVHVEPVRASRNKRPTFLKIKKPLSYRKPMDTDLVYIEKSPNYCEEDPVTGSVGTQGRACNKTAPQASGCDLMCCGRGYNTHQYARVWQCNCKFHWCCYVKCNTCSERTEMYTCK
- expression of definitive endoderm markers (real-time PCR) [6]: minimal impact

B4: FGF-4: member of the fibroblast growth factor family (protein, UniProt P08620 31-206, looked up)
Fibroblast growth factor 4: APTAPNGTLEAELERRWESLVALSLARLPVAAQPKEAAVQSGAGDYLLGIKRLRRLYCNVGIGFHLQALPDGRIGGAHADTRDSLLELSPVERGVVSIFGVASRFFVAMSSKGKLYGSPFFTDECTFKEILLPNNYNAYESYKYPGMFIALSKNGKTKKGNRVSPTMKVTHFLPRL
- expression of α-fetoprotein (AFP) and albumin [7]: further increased

B5: BMP-4: Catalog #314-BP-010, R&D Systems (protein, UniProt P12644 293-408, looked up)
Bone morphogenetic protein 4: SPKHHSQRARKKNKNCRRHSLYVDFSDVGWNDWIVAPPGYQAFYCHGDCPFPLADHLNSTNHAIVQTLVNSVNSSIPKACCVPTELSAISMLYLDEYDKVVLKNYQEMVVEGCGCR
- effect of addition of BMP-4 to the DE protocol ([1]; 25 ng/ml BMP-4): induce formation of mesoderm marker BRY
